The supplement of paper PMC10307832

Assays:
Experiment in all cases: relative viability (nuclei count vs DMSO), 5 days (fraction); higher = more cells survive
Linsitinib + Phenformin = compound: C[C@]1(O)C[C@@H](c2nc(-c3ccc4ccc(-c5ccccc5)nc4c3)c3c(N)nccn32)C1 [Linsitinib] + N=C(N)NC(=N)NCCc1ccccc1 [Phenformin] (partner 250 µM)
How it was run: (§1)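 Relative viability is defined as nuclei in treated wells over nuclei in vehicle wells. Duplicate plates were run and medians reported. Lung cancer cell lines in 1536-well plates were dosed by pin tool one day after seeding, with one drug or with a fixed anchor-drug dose plus five library-drug doses (not always all listed) in √10 steps, and nuclei were counted after 5 days.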

Linsitinib + AZD7762 = compound: C[C@]1(O)C[C@@H](c2nc(-c3ccc4ccc(-c5ccccc5)nc4c3)c3c(N)nccn32)C1 [Linsitinib] + NC(=O)Nc1cc(-c2cccc(F)c2)sc1C(=O)N[C@H]1CCCNC1 [AZD7762] (partner 0.2 µM)
How it was run: as §1

Ispinesib + Pemetrexed = compound: Cc1ccc(C(=O)N(CCCN)[C@@H](c2nc3cc(Cl)ccc3c(=O)n2Cc2ccccc2)C(C)C)cc1 [Ispinesib] + Nc1nc2[nH]cc(CCc3ccc(C(=O)N[C@@H](CCC(=O)O)C(=O)O)cc3)c2c(=O)[nH]1 [Pemetrexed] (partner 0.2 µM)
How it was run: as §1

Ispinesib + Lapatinib = compound: Cc1ccc(C(=O)N(CCCN)[C@@H](c2nc3cc(Cl)ccc3c(=O)n2Cc2ccccc2)C(C)C)cc1 [Ispinesib] + CS(=O)(=O)CCNCc1ccc(-c2ccc3ncnc(Nc4ccc(OCc5cccc(F)c5)c(Cl)c4)c3c2)o1 [Lapatinib] (partner 2 µM)
How it was run: as §1

| Cell Line | relative viability (Linsitinib + Phenformin; first compound 0.01 µM) | relative viability (Linsitinib + Phenformin; first compound 0.03162 µM) | relative viability (Linsitinib + Phenformin; first compound 0.1 µM) | relative viability (Linsitinib + Phenformin; first compound 1 µM) | relative viability (Linsitinib + AZD7762; first compound 0.01 µM) | relative viability (Linsitinib + AZD7762; first compound 0.03162 µM) | relative viability (Linsitinib + AZD7762; first compound 0.1 µM) | relative viability (Linsitinib + AZD7762; first compound 0.3162 µM) | relative viability (Linsitinib + AZD7762; first compound 1 µM) | relative viability (Ispinesib + Pemetrexed; first compound 0.001 µM) | relative viability (Ispinesib + Pemetrexed; first compound 0.003162 µM) | relative viability (Ispinesib + Pemetrexed; first compound 0.01 µM) | relative viability (Ispinesib + Pemetrexed; first compound 0.03162 µM) | relative viability (Ispinesib + Pemetrexed; first compound 0.1 µM) | relative viability (Linsitinib + Phenformin; first compound 0.3162 µM) | relative viability (Ispinesib + Lapatinib; first compound 0.001 µM) | relative viability (Ispinesib + Lapatinib; first compound 0.003162 µM) | relative viability (Ispinesib + Lapatinib; first compound 0.01 µM) | relative viability (Ispinesib + Lapatinib; first compound 0.03162 µM) | relative viability (Ispinesib + Lapatinib; first compound 0.1 µM) |
| --- | --- | --- | --- | --- | --- | --- | --- | --- | --- | --- | --- | --- | --- | --- | --- | --- | --- | --- | --- | --- |
| NCI-H522 | 0.589 | 0.662 | 0.567 | 0.613 | 0.771 | 0.958 | 1.09 | 0.654 | 0.612 | 0.961 | 0.975 | 0.859 | 0.586 | 0.364 |  |  |  |  |  |  |
| NCI-H441 | 0.944 | 0.966 | 0.675 | 0.298 | 1.2 | 1.07 | 1.29 | 0.831 | 0.898 | 0.245 | 0.286 | 0.299 | 0.2 | 0.171 | 0.442 |  |  |  |  |  |
| NCI-H1623 | 0.628 | 0.618 | 0.581 | 0.519 |  |  |  |  |  |  |  |  |  |  |  |  |  |  |  |  |
| NCI-H1437 | 0.281 | 0.321 | 0.303 | 0.288 | 1.15 | 1.16 | 1.11 | 0.964 | 1.1 | 0.31 | 0.334 | 0.329 | 0.347 | 0.238 | 0.272 | 0.98 | 0.928 | 0.901 | 0.419 | 0.206 |
| LCLC-103H | 0.397 | 0.344 | 0.324 | 0.303 | 0.785 | 0.721 | 0.84 | 0.9 | 0.634 | 0.475 | 0.474 | 0.446 | 0.449 | 0.352 | 0.327 |  |  |  |  |  |
| COR-L23 | 0.434 | 0.414 | 0.467 | 0.469 |  |  |  |  |  | 0.197 | 0.195 | 0.183 | 0.158 | 0.147 | 0.347 | 1.03 | 1.06 | 0.814 | 0.147 | 0.272 |
| SK-MES-1 | 0.645 | 0.658 | 0.645 | 0.479 |  |  |  |  |  | 1.02 | 1.04 | 0.805 | 0.206 | 0.234 | 0.491 | 0.534 | 0.506 | 0.54 | 0.5 | 0.168 |
| NCI-H727 | 0.562 | 0.489 | 0.483 | 0.422 | 0.39 | 0.503 | 0.346 | 0.363 | 0.376 |  |  |  |  |  | 0.503 |  | 0.81 | 0.809 | 0.426 | 0.29 |
| NCI-H520 | 0.567 | 0.53 | 0.607 | 0.547 |  |  |  |  |  | 0.768 | 0.75 | 0.721 | 0.231 | 0.211 |  | 0.996 | 0.825 | 0.322 | 0.217 | 0.261 |
| SW 1573 | 0.359 | 0.335 | 0.311 | 0.203 |  |  |  |  |  | 0.799 | 0.791 | 0.78 | 0.279 | 0.152 | 0.244 | 1.22 | 1.16 | 1.3 | 1.25 | 0.238 |
| NCI-H2023 | 0.382 | 0.349 | 0.464 | 0.297 |  |  |  |  |  | 0.241 | 0.241 | 0.19 | 0.144 | 0.115 | 0.296 | 0.771 | 0.819 | 0.424 | 0.134 | 0.115 |
| SK-LU-1 | 0.558 |  | 0.588 | 0.325 |  |  |  |  |  | 1.07 | 0.972 | 1.27 | 0.897 | 0.412 | 0.391 | 0.797 | 1.06 | 0.825 | 0.468 | 0.364 |
| ABC-1 | 0.241 | 0.209 | 0.238 | 0.233 |  |  | 0.765 | 0.861 | 0.602 |  |  |  |  |  | 0.237 | 1.06 | 1.18 | 1.19 | 1.03 | 0.766 |
| EBC-1 |  |  |  |  |  |  |  |  |  |  |  |  |  |  |  | 0.203 | 0.204 | 0.223 | 0.13 | 0.193 |
| NCI-H1703 |  |  |  |  | 0.158 | 0.142 | 0.112 |  | 0.12 |  |  |  |  |  |  | 1.32 | 0.893 | 0.227 | 0.11 | 0.234 |
| NCI-H1563 | 0.68 | 0.647 | 0.658 | 0.621 |  |  |  |  |  | 0.849 | 0.859 | 0.743 | 0.771 | 0.661 | 0.834 | 1.03 | 0.956 | 0.928 | 0.686 | 0.624 |
| NCI-H2228 | 0.307 | 0.397 | 0.325 | 0.278 |  |  |  |  |  | 0.375 | 0.293 | 0.424 | 0.303 | 0.201 | 0.273 | 1.23 | 1.29 | 1.26 | 0.363 | 0.422 |
| NCI-H1299 |  |  |  |  |  |  |  |  |  |  |  |  |  |  |  | 1.02 | 0.988 | 0.979 | 0.813 | 0.3 |
| A549 | 0.2 | 0.264 | 0.173 | 0.151 |  |  |  |  |  |  |  |  |  |  | 0.0926 | 1.07 | 1.07 | 0.952 | 0.172 | 0.127 |
| NCI-H2342 | 0.46 | 0.584 | 0.527 | 0.488 | 0.405 | 0.544 | 0.526 | 0.454 | 0.414 | 0.772 | 0.813 | 0.924 | 0.751 | 0.468 | 0.511 |  |  |  |  |  |
| NCI-H1650 | 0.477 | 0.406 | 0.489 | 0.254 |  |  |  |  |  | 0.381 | 0.368 | 0.372 | 0.321 | 0.161 | 0.272 | 0.799 | 0.715 | 0.387 | 0.211 | 0.208 |
| SW 900 | 0.701 | 0.753 | 0.553 | 0.37 | 0.921 | 0.64 | 0.629 | 0.727 | 0.368 | 0.482 | 0.516 | 0.525 | 0.469 | 0.189 | 0.433 |  |  |  |  |  |
| NCI-H661 | 0.291 | 0.221 | 0.268 | 0.255 |  |  |  |  |  | 0.933 | 0.969 | 0.92 | 0.596 | 0.212 | 0.293 | 0.52 | 0.451 | 0.444 | 0.406 | 0.439 |
| NCI-H1648 |  |  |  |  | 0.683 | 0.671 | 0.713 | 0.692 | 0.612 | 0.92 | 0.723 | 0.802 | 0.751 | 0.305 |  |  |  |  |  |  |
| Calu-6 |  |  |  |  |  |  |  |  |  |  |  |  |  |  |  | 1.24 | 0.955 | 0.526 | 0.217 | 0.256 |
